Inconclusive results are not listed. The source made the active and inactive calls.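 Rule for the calls: active = EC50 at or below 10 µM; inconclusive = EC50 above 10 and up to 20 µM; inactive = EC50 above 20 µM.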
Tested on: MV4-11 apoptosis, Annexin V flow cytometry, 48 h
Experiment: MV4-11 leukemia cell apoptotic death – Annexin V, flow cytometry, dose response (AID 1347409)

| SMILES | EC50 |
| --- | --- |
| Cc1ccc(NC(=O)c2ccc(Cl)cc2Cl)c(S(=O)(=O)O)c1 | 90.1 µM (inactive) |
| COc1ccc(C=C2C(=O)N(Cc3ccco3)C(=O)N(C(C)C)C2=O)cc1 | 60 µM (inactive) |
| CCNc1ccc(Br)cc(C(=O)/C=C/c2c(Cl)cccc2Cl)c1=O | 4.4 µM |
| Cc1ccc([C@@H]2Nc3c(ccc(C(=O)O)c3C)[C@@H]3C=CC[C@@H]32)cc1 | 94.8 µM (inactive) |
| CCOC(=O)c1c(NC(=O)CCC(=O)O)sc(C)c1-c1ccc(CC(C)C)cc1 | 33.6 µM (inactive) |
| CN(CCC(=O)C=Cc1ccc(Cl)c(Cl)c1)CCc1ccc2c(c1)OCO2 | 5.2 µM |
| CCOc1ccc2nc3cc(NC(=O)c4ccco4)ccc3c(N)c2c1 | 1.3 µM |
| NCCCSc1nc2c(c(=O)n1Cc1ccccc1)C1(CCCCC1)Cc1ccccc1-2 | 2.4 µM |
| CCCCCCCCCOc1ccc(C#CC(=O)O)cc1 | 32.4 µM (inactive) |
| Cc1ccc2c(c1)-c1c(c(C(=O)N3CCN(c4cc(C)ccc4C)CC3)nn1C)CS2 | 68.2 µM (inactive) |
| CCOc1cccc2c1N[C@@H](c1ccc(C(=O)O)cc1)[C@H]1CC=C[C@@H]21 | 113 µM (inactive) |

— PubChem BioAssay AID1347409 (Pan Lab, Icahn School of Medicine at Mount Sinai, 2020)
